Measurements from paper PMC4992173, “Divergent synthesis and identification of the cellular targets of deoxyelephantopins” (Nature Communications, 2016).

Assays:
[1] = molecular target: recombinant IKKβ (Homo sapiens, UniProt O14920); assay: Labeling of recombinant IKK-β with probe 24c; format: binding; settings: 10 µM 24c
[2] = molecular target: T1, Protein HGH1 homolog (HGH1) (Homo sapiens, UniProt Q9BTY7); assay: In situ competitive profiling in live MCF7 cells (LFQ): HGH1; format: cell-based; settings: 4 h, then 10 µM 24c, n=4
T1 construct: 1,522 proteins were enriched from MCF7 cells by 10 μM probe 24c; endogenous in cells; host or cells: MCF7
Description: (§1) In our efforts to determine the direct molecular targets of deoxyelephantopin we first performed a gel-based competitive in situ proteomic profiling assay[41] […] While the greater conformational flexibility of probe 24c could potentially lead to more promiscuous target engagement relatively to deoxyelephantopin, it was favoured based on the fact that an alkyne moiety appended to the rigid scaffold of deoxyelephantopin may hinder some of its interactions. MCF7 cells were pretreated with various concentrations of deoxyelephantopin for 4 h, harvested, lysed and the lysates were treated with the fluorogenic probe 24c-Cy3 (10 μM; Supplementary Fig. 10). […] Furthermore, cells were pretreated with 20 μM concentration of deoxyelephantopin or 24c and the proteomic profiles were compared (Fig. 6b, Supplementary Fig. 11). Multiple bands were detected that were equally competed by both DEP and 24c, thus again confirming that 24c can be used as an acceptable clickable analogue of deoxyelephantopin in pulldown assays. Having established the optimal labelling conditions by SDS–PAGE, we next carried out a mass spectrometry-based competitive profiling assay[42] coupled with the method of stable isotope labelling of amino acids in culture (SILAC)[43]. […]
(§2) Figure 6 Proteome-wide identification of deoxyelephantopin targets. […] Quantification was performed using label-free quantification (LFQ) method (n=4). […]

[3] = molecular target: T2, Nucleoporin p54 (NUP54) (Homo sapiens, UniProt Q7Z3B4); assay: In situ competitive profiling in live MCF7 cells (LFQ): NUP54; format: cell-based; settings: protein NUP54, 4 h, then 10 µM 24c, n=4
T2 construct: endogenous in cells; host or cells: MCF7
Description: as §1, §2

[4] = tested on: PPARγ; settings: cited from earlier work

T1 sequence (Q9BTY7 whole entry): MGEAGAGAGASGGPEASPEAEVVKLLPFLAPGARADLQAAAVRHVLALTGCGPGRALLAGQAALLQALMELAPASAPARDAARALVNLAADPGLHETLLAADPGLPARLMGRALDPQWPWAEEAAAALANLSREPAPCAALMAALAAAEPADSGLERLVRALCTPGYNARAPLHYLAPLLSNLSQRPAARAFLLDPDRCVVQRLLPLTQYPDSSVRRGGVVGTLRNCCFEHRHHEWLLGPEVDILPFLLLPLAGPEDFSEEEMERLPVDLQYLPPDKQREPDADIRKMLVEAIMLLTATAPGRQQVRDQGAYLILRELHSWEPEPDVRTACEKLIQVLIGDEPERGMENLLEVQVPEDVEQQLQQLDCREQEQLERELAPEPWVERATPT
Chain of recombinant IKKβ (O14920 whole entry): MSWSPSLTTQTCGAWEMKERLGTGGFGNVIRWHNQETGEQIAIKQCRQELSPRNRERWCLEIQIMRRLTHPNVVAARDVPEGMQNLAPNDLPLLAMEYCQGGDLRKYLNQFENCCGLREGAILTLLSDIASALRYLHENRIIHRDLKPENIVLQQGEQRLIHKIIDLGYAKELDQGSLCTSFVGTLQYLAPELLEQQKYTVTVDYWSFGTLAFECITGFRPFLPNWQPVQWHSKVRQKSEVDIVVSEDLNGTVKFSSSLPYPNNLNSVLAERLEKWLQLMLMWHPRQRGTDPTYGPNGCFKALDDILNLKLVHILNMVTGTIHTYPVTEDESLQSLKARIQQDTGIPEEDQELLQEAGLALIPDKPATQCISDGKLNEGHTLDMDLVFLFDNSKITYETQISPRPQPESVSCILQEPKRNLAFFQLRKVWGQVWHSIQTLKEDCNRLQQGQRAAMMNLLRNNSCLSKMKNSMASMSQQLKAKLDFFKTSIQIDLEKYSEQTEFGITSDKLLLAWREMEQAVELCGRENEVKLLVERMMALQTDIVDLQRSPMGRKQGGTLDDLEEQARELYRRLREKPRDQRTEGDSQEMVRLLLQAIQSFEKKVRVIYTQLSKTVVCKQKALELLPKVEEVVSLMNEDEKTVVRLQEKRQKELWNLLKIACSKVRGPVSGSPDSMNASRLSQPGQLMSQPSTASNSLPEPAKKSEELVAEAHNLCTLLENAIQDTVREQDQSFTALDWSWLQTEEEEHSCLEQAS
T2 sequence (Q7Z3B4 whole entry): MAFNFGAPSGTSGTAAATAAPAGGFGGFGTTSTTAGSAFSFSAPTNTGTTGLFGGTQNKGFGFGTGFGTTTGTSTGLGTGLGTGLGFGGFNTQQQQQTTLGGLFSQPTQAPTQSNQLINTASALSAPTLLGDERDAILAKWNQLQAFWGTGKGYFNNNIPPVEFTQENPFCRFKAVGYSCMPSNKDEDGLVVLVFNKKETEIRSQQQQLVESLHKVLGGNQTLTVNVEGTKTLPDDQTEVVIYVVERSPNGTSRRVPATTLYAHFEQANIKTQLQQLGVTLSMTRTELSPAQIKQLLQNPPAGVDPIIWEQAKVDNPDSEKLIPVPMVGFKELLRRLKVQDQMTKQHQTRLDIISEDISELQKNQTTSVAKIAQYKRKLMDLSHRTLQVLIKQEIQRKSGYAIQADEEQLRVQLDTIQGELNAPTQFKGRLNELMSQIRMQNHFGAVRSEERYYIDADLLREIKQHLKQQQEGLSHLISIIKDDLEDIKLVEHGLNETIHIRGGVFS

Row | Structure (SMILES) | covalent interaction with recombinant IKKβ [1] | LFQ ratio 20 µM Deoxyelephantopin/DMSO with 24c [2] | LFQ ratio 20 µM Deoxyelephantopin/DMSO with 24c [3] | action on PPARγ (SPR) [4]
1 | C#CCC[C@H](OC(=O)C(=C)C)[C@H]1C(=C)C(=O)O[C@@H]1c1ccccc1 [24c] | no evidence of covalent interaction | – | – | –
2 | C=C(C)C(=O)O[C@H]1CC2=C[C@@H](C/C(C)=C/[C@H]3OC(=O)C(=C)[C@H]13)OC2=O [deoxyelephantopin] | – | 0.00 | 0.24 | partial agonist
